Patent US6177253A, “Screening methods for the identification of anti-HIV compounds employing a cyclosporine-specific monoclonal antibody that cross-reacts with HIV-1 p24” (priority 1998, dated 2001)

How the values were obtained:
Type in all cases: binding, BALB/c mice
G7 1.1 = assay: ELISA inhibition by singly modified Cs-derivatives, McAb G7 1.1; conditions: group I; McAb binds selectively to Thr^2 -Cs-BSA coating
Experimental: (§1) A second ELISA Procedure used conjugates of D-Lys^8 -Cs-BSA and Thr^2 -Cs-BSA for coating (Queeniaux et al., 1987b). An indirect detection system consisting of rabbit anti-mouse Ig followed by alkaline phosphates-conjugated goat anti-rabbit IgG was performed as previously described (Queenlaux et al., 1987b).
(§2) The binding of the 22 McAbs to these two Cs-BSA conjugates was also found to correlate well with their fine specificity patterns, as characterized with a set of 28-36 Cs derivatives. Typical ELISA curves showing McAb binding either to D-Lys^8 -Cs-BSA (panel A) or to Thr^2 -Ca-BSA (panel B) and inhibited by Cs or Cs derivatives are shown in FIGS. 8A-8B, D-Lys^8 -Cs-BSA was subsequently used for coating in the inhibition experiments, except for those McAbs binding selectively to Thr^2 -Cs-BSA (see Table 4 and FIGS. 7A-7C). An example of the binding of 26 Cs derivatives by McAbs belonging to each of the five specificity groups mentioned above is reported in Table 5. The results are expressed as the difference of IC50 (in log10) between the Cs derivatives and Cs. All Cs-derivatives used in this study were selected for having a conserved peptide ring conformation compared with CsA (as determined in NMR or X-ray diffraction).

B11 1.4 = assay: ELISA inhibition by singly modified Cs-derivatives, McAb B11 1.4; conditions: group IV; D-Lys^8 -Cs-BSA coating
Experimental: as §1, §2

C4 2.2 = assay: ELISA inhibition by singly modified Cs-derivatives, McAb C4 2.2; conditions: group V; McAb binds selectively to Thr^2 -Cs-BSA coating
Experimental: as §1, §2

H6 1.5 = assay: ELISA inhibition by singly modified Cs-derivatives, McAb H6 1.5; conditions: group III; D-Lys^8 -Cs-BSA coating
Experimental: as §1, §2

H4 1.3 = assay: ELISA inhibition by singly modified Cs-derivatives, McAb H4 1.3; conditions: group II; D-Lys^8 -Cs-BSA coating
Experimental: as §1, §2

SMILES	log10 difference in the concentrations of Cs-derivatives and unmodified Cs required to achieve 50% inhibition in ELISA, McAb G7 1.1 (G7 1.1)	log10 difference in the concentrations of Cs-derivatives and unmodified Cs required to achieve 50% inhibition in ELISA, McAb B11 1.4 (B11 1.4)	log10 difference in the concentrations of Cs-derivatives and unmodified Cs required to achieve 50% inhibition in ELISA, McAb C4 2.2 (C4 2.2)	log10 difference in the concentrations of Cs-derivatives and unmodified Cs required to achieve 50% inhibition in ELISA, McAb H6 1.5 (H6 1.5)	log10 difference in the concentrations of Cs-derivatives and unmodified Cs required to achieve 50% inhibition in ELISA, McAb H4 1.3 (H4 1.3)
C/C=C/C[C@@H](C)[C@@H](O)[C@H]1C(=O)N[C@@H](C)C(=O)N(C)CC(=O)N(C)[C@@H](CC(C)C)C(=O)N[C@@H](C(C)C)C(=O)N(C)[C@@H](CC(C)C)C(=O)N[C@@H](C)C(=O)N[C@H](C)C(=O)N(C)[C@@H](CC(C)C)C(=O)N(C)[C@@H](CC(C)C)C(=O)N(C)[C@@H](C(C)C)C(=O)N1C [Abu^2 Ala]	0.2 log10	0.4 log10	0.1 log10	0.0 log10	–
C/C=C/C[C@@H](C)C[C@H]1C(=O)N[C@@H](CC)C(=O)N(C)CC(=O)N(C)[C@@H](CC(C)C)C(=O)N[C@@H](C(C)C)C(=O)N(C)[C@@H](CC(C)C)C(=O)N[C@@H](C)C(=O)N[C@H](C)C(=O)N(C)[C@@H](CC(C)C)C(=O)N(C)[C@@H](CC(C)C)C(=O)N(C)[C@@H](C(C)C)C(=O)N1C [MeBint^1 3'desoxy]	0.6 log10	0.4 log10	< 0.0 log10	0.0 log10	1.2 log10
C/C=C/C[C@@H](C)[C@@H](O)[C@H]1C(=O)N[C@@H](CC)C(=O)N(C)CC(=O)N(C)[C@@H](Cc2ccccc2)C(=O)N[C@@H](C(C)C)C(=O)N(C)[C@@H](CC(C)C)C(=O)N[C@@H](C)C(=O)N[C@H](C)C(=O)N(C)[C@@H](CC(C)C)C(=O)N(C)[C@@H](CC(C)C)C(=O)N(C)[C@@H](C(C)C)C(=O)N1C [MeLeu^4 MePhe]	< 0.0 log10	0.2 log10	0.0 log10	2.3 log10	0.7 log10
C/C=C/C[C@@H](C)[C@@H](O)[C@H]1C(=O)N[C@@H](CC)C(=O)N(C)CC(=O)N(C)[C@@H](CC(C)C)C(=O)N[C@@H](C(C)C)C(=O)N(C)[C@@H](CC(C)C)C(=O)N[C@@H](C)C(=O)N[C@H](C)C(=O)N(C)[C@@H](CC(C)C)C(=O)N(C)[C@@H](CC(C)C)C(=O)N(C)[C@@H]([C@@H](C)CC)C(=O)N1C [MeVal^11 MeIle]	0.4 log10	0.2 log10	0.3 log10	0.0 log10	0.0 log10
C/C=C/C[C@@H](C)[C@@H](O)[C@H]1C(=O)N[C@@H](CO)C(=O)N(C)CC(=O)N(C)[C@@H](CC(C)C)C(=O)N[C@@H](C(C)C)C(=O)N(C)[C@@H](CC(C)C)C(=O)N[C@@H](C)C(=O)N[C@H](C)C(=O)N(C)[C@@H](CC(C)C)C(=O)N(C)[C@@H](CC(C)C)C(=O)N(C)[C@@H](C(C)C)C(=O)N1C [Abu^2 Ser]	< 0.0 log10	0.0 log10	0.2 log10	0.6 log10	0.9 log10
C/C=C/C[C@@H](C)[C@@H](O)[C@H]1C(=O)N[C@@H](CC)C(=O)N(C)CC(=O)N(C)[C@@H](CC(C)C)C(=O)N[C@@H](C(C)C)C(=O)N(C)[C@@H](CC(C)C)C(=O)N[C@@H](C)C(=O)N[C@H](C)C(=O)N(C)[C@@H](C)C(=O)N(C)[C@@H](CC(C)C)C(=O)N(C)[C@@H](C(C)C)C(=O)N1C [MeLeu^9 MeAla]	1.4 log10	1.7 log10	1.9 log10	0.0 log10	< 0.0 log10
C/C=C/C[C@@H](C)[C@@H](O)[C@H]1C(=O)N[C@@H]([C@H](C)O)C(=O)N(C)CC(=O)N(C)[C@@H](CC(C)C)C(=O)N[C@@H](C(C)C)C(=O)N(C)[C@@H](CC(C)C)C(=O)N[C@@H](C)C(=O)N[C@H](C)C(=O)N(C)[C@@H](CC(C)C)C(=O)N(C)[C@@H](CC(C)C)C(=O)N(C)[C@@H](C(C)C)C(=O)N1C [Abu^2 aThr]	< 0.0 log10	0.0 log10	0.3 log10	1.1 log10	1.5 log10
CC[C@@H]1NC(=O)[C@H]([C@H](O)[C@H](C)C/C=C/CO)N(C)C(=O)[C@H](C(C)C)N(C)C(=O)[C@H](CC(C)C)N(C)C(=O)[C@H](CC(C)C)N(C)C(=O)[C@@H](C)NC(=O)[C@H](C)NC(=O)[C@H](CC(C)C)N(C)C(=O)[C@H](C(C)C)NC(=O)[C@H](CC(C)C)N(C)C(=O)CN(C)C1=O [MeBint^1 8'-hydroxy]	0.0 log10	< 0.0 log10	0.0 log10	< 0.0 log10	< 0.0 log10
C/C=C/C[C@@H](C)[C@@H](O)[C@H]1C(=O)N[C@@H](CCC)C(=O)N(C)CC(=O)N(C)[C@@H](CC(C)C)C(=O)N[C@@H](CCC)C(=O)N(C)[C@@H](CC(C)C)C(=O)N[C@@H](C)C(=O)N[C@H](C)C(=O)N(C)[C@@H](CC(C)C)C(=O)N(C)[C@@H](CC(C)C)C(=O)N(C)[C@@H](C(C)C)C(=O)N1C [Val^5 NVa^2, Nva^5]	0.5 log10	0.2 log10	0.1 log10	0.2 log10	1.2 log10
C/C=C/C[C@@H](C)[C@@H](OC(C)=O)[C@H]1C(=O)N[C@@H](CC)C(=O)N(C)CC(=O)N(C)[C@@H](CC(C)C)C(=O)N[C@@H](C(C)C)C(=O)N(C)[C@@H](CC(C)C)C(=O)N[C@@H](C)C(=O)N[C@H](C)C(=O)N(C)[C@@H](CC(C)C)C(=O)N(C)[C@@H](CC(C)C)C(=O)N(C)[C@@H](C(C)C)C(=O)N1C [MeBint^1 3'-O-acetyl]	0.1 log10	0.7 log10	0.2 log10	0.6 log10	1.1 log10
C/C=C/C[C@@H](C)[C@@H](O)[C@H]1C(=O)N[C@@H](CC)C(=O)N(C)CC(=O)N(C)[C@@H](CC(C)C)C(=O)N[C@@H](C(C)C)C(=O)N(C)[C@@H](CC(C)C)C(=O)N[C@@H](C)C(=O)N[C@H](CCCCNC(=O)OC(C)(C)C)C(=O)N(C)[C@@H](CC(C)C)C(=O)N(C)[C@@H](CC(C)C)C(=O)N(C)[C@@H](C(C)C)C(=O)N1C [D-Ala^8 Boc-D-Lys]	2.0 log10	0.3 log10	1.2 log10	0.0 log10	0.6 log10
